# Source: patent US20090054481A1 (priority 2003, published 2009)
# Structures can show the parent of a compound that is named as a salt.
# How the values were obtained:
# [1] = Dissolution rate of micronized drug substance (background statement); format: physicochemical; details: agglomerating drug substance
# [2] = cited from earlier work
# [3] = 25° C., cited from earlier work
structure (smiles),measurement,setting,value
"CC(C)(C)NC(=O)[C@@H]1C[C@@H]2CCCC[C@@H]2CN1C[C@@H](O)[C@H](Cc1ccccc1)NC(=O)[C@H](CC(N)=O)NC(=O)c1ccc2ccccc2n1 [Micronized saquinavir mesylate, saquinavir mesylate]",dissolution rate (in words),[1],slow dissolution rate
CC(C)(C)NC(=O)[C@@H]1C[C@@H]2CCCC[C@@H]2CN1C[C@@H](O)[C@H](Cc1ccccc1)NC(=O)[C@H](CC(N)=O)NC(=O)c1ccc2ccccc2n1 [saquinavir],Absolute bioavailability (average),"[2]; 8 healthy volunteers, single 600 mg dose (3×200 mg capsules) following a high fat breakfast, CV 73%",4%
same,Absolute bioavailability (range),"[2]; 8 healthy volunteers, single 600 mg dose (3×200 mg capsules) following a high fat breakfast",1-9%
same,24-hour AUC and Cmax after a higher calorie meal versus a lower calorie meal,"[2]; n=6, on average",two times higher
CC(C)(C)NC(=O)[C@@H]1C[C@@H]2CCCC[C@@H]2CN1C[C@@H](O)[C@H](Cc1ccccc1)NC(=O)[C@H](CC(N)=O)NC(=O)c1ccc2ccccc2n1 [Saquinavir mesylate],solubility in simulated gastric fluid,[3]; simulated gastric fluid,80 µg/mL
same,solubility in simulated intestinal fluid,[3]; simulated intestinal fluid,practically insoluble
